In the supplement of paper PMC12137928:
Structures can show the parent of a compound that is named as a salt.

System: HCT116
Conditions: 72 h
Outline: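 IC50 and maximal efficacy were derived from four-parameter Hill curve fits. The underlying CellTiter-Glo luminescence was scaled so that vehicle equals 0% and positive control equals -100%, and was then pattern-corrected. HCT116 cells had been seeded in 1536-well plates at 250 per well.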

Row | SMILES | IC50 cell viability (ICRF193 0 nM) [µM] | IC50 cell viability (ICRF193 200 nM) [µM]
1 | OB1OCc2cc(F)ccc21 [AN-2690] | > 45.8 | > 45.8
2 | N#Cc1ccc(Oc2ccc3c(c2)COB3O)cc1 [AN-2728] | > 45.8 | > 45.8
3 | CN[C@@H]1[C@@H](O[C@H]2O[C@H](CO)[C@@H](N)[C@H](O)[C@H]2O)OC2C[C@@H](N)[C@@H](O[C@H]3[C@H](O)[C@@H](O)[C@H](N)C[C@@H]3N)OC2[C@@H]1O (some centres not stated) [APRAMYCIN SULFATE] | > 45.8 | > 45.8
4 | OCC(O)C(O)C(O)CO (configuration not stated) [ARABITOL(D)] | > 45.8 | > 45.8
5 | CCCCCCCCCCCC(=O)OCN1C(=O)CCc2ccc(OCCCCN3CCN(c4cccc(Cl)c4Cl)CC3)cc21 [ARIPIPRAZOLE LAUROXIL] | > 45.8 | > 45.8
6 | Nc1ncnc2c1ncn2[C@@H]1O[C@H](COP(=O)(O)OP(=O)(O)OP(=O)(O)O)[C@@H](O)[C@H]1O [ATP (disodium salt)] | > 45.8 | > 45.8
7 | O=C1N=C(N2CCOCC2)CN1c1ccc(Cl)cc1 [AWD 131-138] | > 45.8 | > 45.8
8 | CC1(C)S[C@@H]2[C@H](NC(=O)[C@H](NC(=O)N3CCNC3=O)c3ccccc3)C(=O)N2[C@H]1C(=O)O [AZLOCILLIN SODIUM] | > 45.8 | > 45.8
9 | CC(=O)O[C@H]1CC[C@@]2(C)C(=CC[C@@H]3[C@@H]2CC[C@]2(C)C(c4cccnc4)=CC[C@@H]32)C1 [Abiraterone acetate] | > 45.8 | > 45.8
10 | NC(=O)c1ncn([C@@H]2O[C@H](CO)[C@@H](O)[C@H]2O)c1N [Acadesine] | > 45.8 | > 45.8
11 | CC(=O)NCCCS(=O)(=O)O [Acamprosate Calcium] | > 45.8 | > 45.8
12 | C[C@H]1O[C@H](O[C@H]2[C@H](O)[C@@H](O)[C@@H](O[C@H]3[C@H](O)[C@@H](O)C(O)O[C@@H]3CO)O[C@@H]2CO)[C@H](O)[C@@H](O)[C@@H]1N[C@H]1C=C(CO)[C@@H](O)[C@H](O)[C@H]1O (some centres not stated) [Acarbose] | > 45.8 | > 45.8
13 | CCCC(=O)Nc1ccc(OCC(O)CNC(C)C)c(C(C)=O)c1 (configuration not stated) [Acebutolol hydrochloride] | > 45.8 | > 45.8
14 | O=C(O)COC(=O)Cc1ccccc1Nc1c(Cl)cccc1Cl [Aceclofenac] | > 45.8 | > 45.8
15 | CC(=O)O[C@@H]1C(=O)O[C@H]2[C@@H]1OC(=O)[C@@H]2OC(C)=O [Aceglatone] | > 45.8 | > 45.8
16 | COc1ccc2c(c1)c(CC(=O)OCC(=O)O)c(C)n2C(=O)c1ccc(Cl)cc1 [Acemetacin] | > 45.8 | > 45.8
17 | CC(=O)CC(c1ccc([N+](=O)[O-])cc1)c1c(O)c2ccccc2oc1=O (configuration not stated) [Acenocoumarol] | > 45.8 | > 45.8
18 | CC(=O)Nc1ccc(O)cc1 [Acetaminophen] | > 45.8 | > 45.8
19 | CC(=O)Nc1ccccc1 [Acetanilide] | > 45.8 | > 45.8
20 | CC(=O)Nc1cc([As](=O)(O)O)ccc1O [Acetarsol] | > 45.8 | > 45.8
21 | CC(=O)Nc1nnc(S(N)(=O)=O)s1 [Acetazolamide] | > 45.8 | > 45.8
22 | CC(=O)c1ccc(S(=O)(=O)NC(=O)NC2CCCCC2)cc1 [Acetohexamide] | > 45.8 | > 45.8
23 | CC(=O)c1ccc2c(c1)N(CCCN1CCN(CCO)CC1)c1ccccc1S2 [Acetophenazine Maleate] | > 45.8 | > 45.8

Row | SMILES | IC50 cell viability (ICRF193 0 nM) [µM] | IC50 cell viability (ICRF193 200 nM) [µM]
24 | CC(=O)c1ccc2c(c1)N(CCCN(C)C)c1ccccc1S2 [Acetopromazine maleate] | > 45.8 | > 45.8
25 | CC(=O)Nc1c(I)cc(I)c(C(=O)O)c1I [Acetrizoic acid] | > 45.8 | > 45.8
26 | CC(=O)OCC[N+](C)(C)C [Acetylcholine chloride] | > 45.8 | > 45.8
27 | CC(=O)N[C@@H](CS)C(=O)O [Acetylcysteine] | > 45.8 | > 45.8
28 | CCC(C(=O)NC(=O)NC(C)=O)c1ccccc1 (configuration not stated) [Acetylpheneturide] | > 45.8 | > 45.8
29 | Nc1nc2c(ncn2COCCO)c(=O)[nH]1 [Aciclovir] | > 45.8 | > 45.8
30 | O=C(O)C(=O)Nc1cccc(-c2nnn[nH]2)c1 [Acitazanolast] | > 45.8 | > 45.8
31 | COc1cc(C)c(/C=C/C(C)=C/C=C/C(C)=C/C(=O)O)c(C)c1C [Acitretin] | > 45.8 | > 45.8
32 | O=C(O[C@H]1C[N+]2(CCCOc3ccccc3)CCC1CC2)C(O)(c1cccs1)c1cccs1 [Aclidinium (Bromide)] | > 45.8 | > 45.8
33 | CCN1C[C@]2(COC)[C@H](O)C[C@H](OC)[C@@]34[C@@H]5C[C@@]6(O)[C@H](OC(=O)c7ccccc7)[C@@H]5[C@@](OC(C)=O)([C@@H]([C@H](OC)[C@H]23)[C@@H]14)[C@@H](O)[C@@H]6OC [Aconitine] | > 45.8 | > 45.8
34 | CC(=O)OCC(=O)Nc1cc(C#N)cc(NC(=O)COC(C)=O)c1Cl [Acreozast] | > 45.8 | > 45.8
35 | Cc1ccc(/C(=C\CN2CCCC2)c2cccc(/C=C/C(=O)O)n2)cc1 [Acrivastine] | > 45.8 | > 45.8
36 | COc1ccc(-c2ccc3cc(C(=O)O)ccc3c2)cc1C12CC3CC(CC(C3)C1)C2 [Adapalene] | > 45.8 | > 45.8
37 | Nc1[nH]cnc2ncnc1-2 [Adenine] | > 45.8 | > 45.8
38 | Nc1ncnc2c1ncn2[C@@H]1O[C@H](CO)[C@@H](O)[C@H]1O [Adenosine] | > 45.8 | > 45.8
39 | O=S(O)CNc1ccc(S(=O)(=O)c2ccc(NCS(=O)O)cc2)cc1 [Adesulfone sodium] | > 45.8 | > 45.8
40 | CN1CC(O)C2=C/C(=N/NC(N)=O)C(=O)C=C21 (configuration not stated) [Adrenochrome semicarbazone] | > 45.8 | > 45.8
41 | Cc1ccccc1-n1c(CF)nc2ccc(N)cc2c1=O [Afloqualone] | > 45.8 | > 45.8
42 | CCCCCCCCCCCCCCCCC(C(=O)O)C(O)(CC(=O)O)C(=O)O (configuration not stated) [Agaric acid] | > 45.8 | > 45.8
43 | COc1ccc2cccc(CCNC(C)=O)c2c1 [Agomelatine] | > 45.8 | > 45.8
44 | CC[C@H]1[C@@H]2C[C@H]3[C@@H]4N(C)c5ccccc5[C@]45C[C@@H]([C@@H]2[C@H]5O)N3[C@@H]1O [Ajmaline] | > 45.8 | > 45.8
45 | CC(=O)SC[C@@H](C)C(=O)N1CCC[C@H]1C(=O)N[C@@H](Cc1ccccc1)C(=O)O [Alacepril] | > 45.8 | > 45.8
46 | C[C@H](N)C(=O)N[C@@H](C)C(=O)N[C@H]1[C@@H]2CN(c3nc4c(cc3F)c(=O)c(C(=O)O)cn4-c3ccc(F)cc3F)C[C@@H]21 [Alatrofloxacin mesylate] | > 45.8 | > 45.8
